According to ChEMBL document CHEMBL5291721, “A preclinical secondary pharmacology resource illuminates target-adverse drug reaction associations of marketed drugs” (Nat Commun, 2023):

Key:
[1] = target: T1, Amine oxidase [flavin-containing] A (Homo sapiens, UniProt P21397); format: functional
T1 sequence (P21397 whole entry): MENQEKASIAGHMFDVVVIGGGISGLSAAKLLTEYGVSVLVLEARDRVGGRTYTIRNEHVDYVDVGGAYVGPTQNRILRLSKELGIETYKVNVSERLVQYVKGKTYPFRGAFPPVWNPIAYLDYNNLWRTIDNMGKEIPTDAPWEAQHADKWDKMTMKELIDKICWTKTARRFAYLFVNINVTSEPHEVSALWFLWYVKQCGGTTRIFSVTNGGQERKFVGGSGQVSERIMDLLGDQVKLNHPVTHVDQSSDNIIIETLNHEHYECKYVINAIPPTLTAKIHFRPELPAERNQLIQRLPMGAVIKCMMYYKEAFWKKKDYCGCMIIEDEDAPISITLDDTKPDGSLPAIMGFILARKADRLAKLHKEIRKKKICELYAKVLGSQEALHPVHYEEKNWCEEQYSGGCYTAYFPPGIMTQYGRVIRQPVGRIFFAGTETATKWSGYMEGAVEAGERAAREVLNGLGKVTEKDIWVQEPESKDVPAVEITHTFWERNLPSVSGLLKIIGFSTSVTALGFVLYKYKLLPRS

[2] = target: Prothrombin (Homo sapiens, UniProt P00734); format: functional
[3] = target: cGMP-inhibited 3',5'-cyclic phosphodiesterase 3A (Homo sapiens, UniProt Q14432); format: functional
[4] = target: Voltage-gated inwardly rectifying potassium channel KCNH2 (Homo sapiens, UniProt Q12809); format: functional; settings: read-out: AC50
[5] = target: T2, Muscarinic acetylcholine receptor M2 (Homo sapiens, UniProt P08172)
T2 sequence (P08172 whole entry): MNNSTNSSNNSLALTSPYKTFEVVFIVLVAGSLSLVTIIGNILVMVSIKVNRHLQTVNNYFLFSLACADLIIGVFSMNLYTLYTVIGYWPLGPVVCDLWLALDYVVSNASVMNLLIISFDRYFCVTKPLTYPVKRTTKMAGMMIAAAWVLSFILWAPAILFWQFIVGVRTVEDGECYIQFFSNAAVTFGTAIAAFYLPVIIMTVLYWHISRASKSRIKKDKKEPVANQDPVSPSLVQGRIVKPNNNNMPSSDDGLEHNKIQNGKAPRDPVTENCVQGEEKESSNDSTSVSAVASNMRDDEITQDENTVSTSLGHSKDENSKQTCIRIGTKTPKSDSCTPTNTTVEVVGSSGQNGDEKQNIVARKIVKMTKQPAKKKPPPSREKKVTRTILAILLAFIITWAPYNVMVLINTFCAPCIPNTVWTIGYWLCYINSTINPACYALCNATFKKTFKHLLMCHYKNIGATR

[6] = target: D(1A) dopamine receptor (Homo sapiens, UniProt P21728)
[7] = target: T3, Alpha-2A adrenergic receptor (Homo sapiens, UniProt P08913)
T3 sequence (P08913 whole entry): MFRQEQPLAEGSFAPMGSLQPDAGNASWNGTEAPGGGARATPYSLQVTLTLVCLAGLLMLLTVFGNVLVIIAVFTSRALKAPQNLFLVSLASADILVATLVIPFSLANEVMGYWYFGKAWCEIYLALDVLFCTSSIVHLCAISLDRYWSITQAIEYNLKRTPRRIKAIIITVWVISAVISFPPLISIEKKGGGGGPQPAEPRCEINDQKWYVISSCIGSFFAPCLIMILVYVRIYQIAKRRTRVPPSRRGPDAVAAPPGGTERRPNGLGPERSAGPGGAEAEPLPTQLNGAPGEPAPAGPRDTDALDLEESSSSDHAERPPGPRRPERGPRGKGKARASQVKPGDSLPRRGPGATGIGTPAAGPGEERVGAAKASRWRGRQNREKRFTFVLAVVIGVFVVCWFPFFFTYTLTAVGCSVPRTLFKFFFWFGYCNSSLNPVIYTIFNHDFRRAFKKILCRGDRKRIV

[8] = target: T4, Estrogen receptor (Homo sapiens, UniProt P03372)
T4 sequence (P03372 whole entry): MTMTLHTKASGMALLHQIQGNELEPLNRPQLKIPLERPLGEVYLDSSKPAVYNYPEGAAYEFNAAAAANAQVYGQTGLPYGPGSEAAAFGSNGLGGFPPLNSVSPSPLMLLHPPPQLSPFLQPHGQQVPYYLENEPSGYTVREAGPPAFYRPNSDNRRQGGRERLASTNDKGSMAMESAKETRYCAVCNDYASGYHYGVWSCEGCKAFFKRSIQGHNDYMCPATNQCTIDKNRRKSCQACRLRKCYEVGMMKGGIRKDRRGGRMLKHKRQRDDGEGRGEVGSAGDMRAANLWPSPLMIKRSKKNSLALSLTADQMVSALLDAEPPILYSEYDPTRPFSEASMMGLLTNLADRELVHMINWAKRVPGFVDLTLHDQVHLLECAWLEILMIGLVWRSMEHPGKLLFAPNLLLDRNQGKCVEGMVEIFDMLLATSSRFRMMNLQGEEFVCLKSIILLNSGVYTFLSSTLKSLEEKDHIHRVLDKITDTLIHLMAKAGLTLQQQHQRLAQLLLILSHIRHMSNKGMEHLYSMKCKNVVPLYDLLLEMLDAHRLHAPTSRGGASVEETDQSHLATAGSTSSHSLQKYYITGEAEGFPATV

[9] = target: 5-hydroxytryptamine receptor 2B (Homo sapiens, UniProt P41595); format: functional, cell-based
[10] = target: Mu-type opioid receptor (Homo sapiens, UniProt P35372)
[11] = target: Histamine H3 receptor (Homo sapiens, UniProt Q9Y5N1)
[12] = target: T5, 5-hydroxytryptamine receptor 1A (Homo sapiens, UniProt P08908)
T5 sequence (P08908 whole entry): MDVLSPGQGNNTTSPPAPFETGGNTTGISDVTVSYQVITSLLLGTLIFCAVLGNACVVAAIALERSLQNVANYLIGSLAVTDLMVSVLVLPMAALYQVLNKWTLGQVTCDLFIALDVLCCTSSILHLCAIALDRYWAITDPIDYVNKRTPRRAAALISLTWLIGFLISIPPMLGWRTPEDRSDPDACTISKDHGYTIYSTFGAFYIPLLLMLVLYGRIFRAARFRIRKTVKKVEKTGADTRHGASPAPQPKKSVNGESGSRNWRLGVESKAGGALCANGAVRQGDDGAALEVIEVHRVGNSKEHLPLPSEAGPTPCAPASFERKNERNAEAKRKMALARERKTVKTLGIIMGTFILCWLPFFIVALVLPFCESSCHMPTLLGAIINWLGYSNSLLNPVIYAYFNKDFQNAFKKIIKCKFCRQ

[13] = target: Prostaglandin G/H synthase 1 (Homo sapiens, UniProt P23219); format: functional
Further: assay procedure not described here.

5-hydroxytryptamine receptor 2B, sequence (P41595 whole entry): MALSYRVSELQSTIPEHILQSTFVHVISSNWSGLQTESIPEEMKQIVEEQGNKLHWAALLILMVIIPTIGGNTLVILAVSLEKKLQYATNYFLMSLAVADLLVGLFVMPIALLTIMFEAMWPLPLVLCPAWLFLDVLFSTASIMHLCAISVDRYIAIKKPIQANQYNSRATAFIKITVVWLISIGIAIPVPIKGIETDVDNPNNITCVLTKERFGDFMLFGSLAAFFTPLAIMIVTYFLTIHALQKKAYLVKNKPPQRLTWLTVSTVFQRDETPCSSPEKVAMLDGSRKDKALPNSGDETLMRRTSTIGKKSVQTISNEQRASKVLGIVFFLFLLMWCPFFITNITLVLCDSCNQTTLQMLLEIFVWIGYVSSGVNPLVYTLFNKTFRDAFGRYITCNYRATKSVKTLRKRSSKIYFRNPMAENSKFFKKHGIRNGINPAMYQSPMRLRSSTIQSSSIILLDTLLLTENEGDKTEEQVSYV
Prostaglandin G/H synthase 1, sequence (P23219 whole entry): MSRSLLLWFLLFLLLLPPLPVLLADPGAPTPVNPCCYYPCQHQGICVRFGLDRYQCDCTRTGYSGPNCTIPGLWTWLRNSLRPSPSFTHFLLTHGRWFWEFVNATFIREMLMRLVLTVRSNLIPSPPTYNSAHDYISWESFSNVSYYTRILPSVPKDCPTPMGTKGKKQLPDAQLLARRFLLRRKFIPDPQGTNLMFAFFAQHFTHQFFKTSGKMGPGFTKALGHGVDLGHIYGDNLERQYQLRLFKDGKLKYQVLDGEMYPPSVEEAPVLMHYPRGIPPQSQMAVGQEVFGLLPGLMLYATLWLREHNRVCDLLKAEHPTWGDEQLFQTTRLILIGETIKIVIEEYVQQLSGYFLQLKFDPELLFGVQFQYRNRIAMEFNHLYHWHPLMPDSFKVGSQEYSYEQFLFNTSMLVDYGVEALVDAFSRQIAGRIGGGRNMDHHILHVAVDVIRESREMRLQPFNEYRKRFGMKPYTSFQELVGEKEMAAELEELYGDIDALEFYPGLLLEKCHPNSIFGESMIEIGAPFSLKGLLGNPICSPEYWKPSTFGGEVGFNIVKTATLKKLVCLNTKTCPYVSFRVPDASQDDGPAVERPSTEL
Mu-type opioid receptor, sequence (P35372 whole entry): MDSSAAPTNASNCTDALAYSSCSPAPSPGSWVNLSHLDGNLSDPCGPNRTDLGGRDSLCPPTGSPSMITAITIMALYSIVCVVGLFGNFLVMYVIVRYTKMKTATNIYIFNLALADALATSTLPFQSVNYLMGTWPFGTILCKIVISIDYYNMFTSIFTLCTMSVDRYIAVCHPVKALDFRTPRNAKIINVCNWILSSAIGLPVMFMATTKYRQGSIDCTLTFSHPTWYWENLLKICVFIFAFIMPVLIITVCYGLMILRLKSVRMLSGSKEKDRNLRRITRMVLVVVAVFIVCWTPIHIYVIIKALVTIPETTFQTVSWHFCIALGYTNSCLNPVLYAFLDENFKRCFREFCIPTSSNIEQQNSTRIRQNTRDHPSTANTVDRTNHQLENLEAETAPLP
D(1A) dopamine receptor, sequence (P21728 whole entry): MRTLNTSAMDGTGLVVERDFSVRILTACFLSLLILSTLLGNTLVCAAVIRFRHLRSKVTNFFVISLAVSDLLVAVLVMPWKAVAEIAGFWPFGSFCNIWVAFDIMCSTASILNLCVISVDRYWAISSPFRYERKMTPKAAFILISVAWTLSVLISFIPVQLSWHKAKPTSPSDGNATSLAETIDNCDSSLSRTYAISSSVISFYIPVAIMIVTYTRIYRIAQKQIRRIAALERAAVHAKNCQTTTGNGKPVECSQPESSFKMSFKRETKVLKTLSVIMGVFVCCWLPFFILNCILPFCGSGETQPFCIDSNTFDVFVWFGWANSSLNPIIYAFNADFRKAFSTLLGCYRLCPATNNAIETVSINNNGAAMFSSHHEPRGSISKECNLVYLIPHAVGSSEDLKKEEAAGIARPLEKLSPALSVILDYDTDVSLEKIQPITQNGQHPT
Histamine H3 receptor, sequence (Q9Y5N1 whole entry): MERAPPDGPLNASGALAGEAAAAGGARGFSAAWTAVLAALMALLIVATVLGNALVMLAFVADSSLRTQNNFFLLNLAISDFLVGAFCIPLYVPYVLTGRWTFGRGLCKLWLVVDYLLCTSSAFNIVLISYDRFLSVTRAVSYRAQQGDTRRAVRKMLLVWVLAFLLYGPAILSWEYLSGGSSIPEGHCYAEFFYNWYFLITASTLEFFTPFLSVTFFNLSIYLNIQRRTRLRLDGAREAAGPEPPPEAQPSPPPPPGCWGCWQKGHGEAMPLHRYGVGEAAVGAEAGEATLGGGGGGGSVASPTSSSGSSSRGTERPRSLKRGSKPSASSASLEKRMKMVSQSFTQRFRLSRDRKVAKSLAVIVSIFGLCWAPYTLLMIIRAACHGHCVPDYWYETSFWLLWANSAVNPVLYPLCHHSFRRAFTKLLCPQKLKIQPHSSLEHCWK
Voltage-gated inwardly rectifying potassium channel KCNH2, sequence (Q12809 whole entry): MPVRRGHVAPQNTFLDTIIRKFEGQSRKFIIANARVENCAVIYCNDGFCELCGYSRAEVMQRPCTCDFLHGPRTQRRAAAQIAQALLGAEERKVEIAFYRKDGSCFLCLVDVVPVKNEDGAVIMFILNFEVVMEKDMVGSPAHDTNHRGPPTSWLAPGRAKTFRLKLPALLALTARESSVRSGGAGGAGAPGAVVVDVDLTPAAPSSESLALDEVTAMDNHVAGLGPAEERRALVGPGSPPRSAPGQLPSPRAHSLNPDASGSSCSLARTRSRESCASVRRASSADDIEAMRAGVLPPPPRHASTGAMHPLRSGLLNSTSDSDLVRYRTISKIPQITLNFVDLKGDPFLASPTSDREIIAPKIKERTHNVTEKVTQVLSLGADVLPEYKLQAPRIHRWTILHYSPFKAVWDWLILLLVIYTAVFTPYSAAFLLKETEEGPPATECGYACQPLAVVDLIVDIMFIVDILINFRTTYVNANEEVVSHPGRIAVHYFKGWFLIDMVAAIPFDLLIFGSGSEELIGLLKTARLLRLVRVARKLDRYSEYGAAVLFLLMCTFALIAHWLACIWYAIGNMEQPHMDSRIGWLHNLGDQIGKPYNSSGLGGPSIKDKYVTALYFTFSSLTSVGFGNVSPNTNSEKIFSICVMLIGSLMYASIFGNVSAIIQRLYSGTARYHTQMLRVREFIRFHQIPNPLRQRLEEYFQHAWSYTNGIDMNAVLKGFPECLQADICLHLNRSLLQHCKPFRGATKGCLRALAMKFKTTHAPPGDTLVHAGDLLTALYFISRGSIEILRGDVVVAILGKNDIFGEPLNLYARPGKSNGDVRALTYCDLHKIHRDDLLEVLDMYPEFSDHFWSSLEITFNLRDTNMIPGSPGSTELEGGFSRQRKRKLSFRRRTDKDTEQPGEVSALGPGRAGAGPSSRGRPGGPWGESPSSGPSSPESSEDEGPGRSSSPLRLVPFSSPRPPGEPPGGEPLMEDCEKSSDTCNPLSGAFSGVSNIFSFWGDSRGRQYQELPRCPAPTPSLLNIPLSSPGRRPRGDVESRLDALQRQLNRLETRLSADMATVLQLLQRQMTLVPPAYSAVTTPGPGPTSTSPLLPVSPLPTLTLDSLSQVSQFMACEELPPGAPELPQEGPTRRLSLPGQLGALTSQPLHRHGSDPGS
cGMP-inhibited 3',5'-cyclic phosphodiesterase 3A, sequence (Q14432 whole entry): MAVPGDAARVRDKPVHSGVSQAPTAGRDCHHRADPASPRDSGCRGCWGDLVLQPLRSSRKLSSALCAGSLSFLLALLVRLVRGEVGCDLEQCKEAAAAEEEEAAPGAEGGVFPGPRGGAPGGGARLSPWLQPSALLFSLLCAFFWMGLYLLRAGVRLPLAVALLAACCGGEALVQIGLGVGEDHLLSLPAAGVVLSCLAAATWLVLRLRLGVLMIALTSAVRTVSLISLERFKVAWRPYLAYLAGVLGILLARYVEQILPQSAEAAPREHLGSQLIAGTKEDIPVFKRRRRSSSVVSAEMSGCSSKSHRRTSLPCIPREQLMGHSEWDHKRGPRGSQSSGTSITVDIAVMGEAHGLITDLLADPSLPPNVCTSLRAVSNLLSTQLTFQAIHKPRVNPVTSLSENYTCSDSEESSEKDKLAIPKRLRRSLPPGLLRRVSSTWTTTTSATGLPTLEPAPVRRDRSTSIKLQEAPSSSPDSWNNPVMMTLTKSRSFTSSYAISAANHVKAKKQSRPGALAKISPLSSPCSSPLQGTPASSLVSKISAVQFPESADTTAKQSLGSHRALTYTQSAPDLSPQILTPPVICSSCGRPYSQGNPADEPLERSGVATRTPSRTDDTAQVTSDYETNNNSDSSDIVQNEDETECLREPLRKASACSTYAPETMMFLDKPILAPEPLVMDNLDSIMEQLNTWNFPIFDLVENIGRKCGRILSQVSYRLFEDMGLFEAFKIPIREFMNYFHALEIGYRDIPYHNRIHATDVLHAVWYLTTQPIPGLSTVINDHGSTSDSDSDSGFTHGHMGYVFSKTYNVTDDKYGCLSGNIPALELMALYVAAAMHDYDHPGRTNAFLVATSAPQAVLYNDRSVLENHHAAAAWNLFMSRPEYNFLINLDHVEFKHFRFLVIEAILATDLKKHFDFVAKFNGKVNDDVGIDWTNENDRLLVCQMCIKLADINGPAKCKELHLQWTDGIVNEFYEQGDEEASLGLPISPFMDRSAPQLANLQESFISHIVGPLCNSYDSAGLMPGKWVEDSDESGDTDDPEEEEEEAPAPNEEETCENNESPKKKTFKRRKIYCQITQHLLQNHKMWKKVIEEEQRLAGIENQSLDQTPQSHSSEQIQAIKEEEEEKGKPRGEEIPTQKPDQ

Work on `CC(=O)OC(C)C[N+](C)(C)C` (stereo not drawn) [METHACHOLINE] yielded an AC50 [1] greater than 30 µM, an AC50 [2] greater than 30 µM and an AC50 [3] greater than 30 µM. For the same compound, the AC50 [4] was greater than 30 µM, the AC50 [5] was 2.22 µM and the AC50 [6] was greater than 30 µM. It also gave an AC50 [7] greater than 30 µM, an AC50 [8] greater than 30 µM and an AC50 [9] greater than 30 µM. For the same compound, the AC50 [10] was greater than 30 µM, the AC50 [11] was greater than 30 µM and the AC50 [12] was greater than 30 µM. For the same compound, the AC50 [13] was greater than 30 µM.
In the case of `NC(=O)c1cccc2cn(-c3ccc([C@@H]4CCCNC4)cc3)nc12` [NIRAPARIB], the AC50 [1] is reported as greater than 30 µM, the AC50 [2] is reported as greater than 30 µM and the AC50 [3] is reported as greater than 30 µM. The AC50 [4] was greater than 30 µM, the AC50 [5] was 14.4 µM and the AC50 [6] was greater than 30 µM. For the same compound, the AC50 [7] was greater than 30 µM, the AC50 [8] was greater than 30 µM and the AC50 [9] was greater than 30 µM. It also gave an AC50 [10] greater than 30 µM, an AC50 [11] of 26 µM and an AC50 [12] greater than 30 µM. For the same compound, the AC50 [13] was greater than 30 µM.
Work on `COc1ccc2c(c1)OC(C)(C)C(c1ccccc1)C2c1ccc(OCCN2CCCC2)cc1` (stereo not drawn) [ORMELOXIFENE] yielded an AC50 [1] greater than 30 µM, an AC50 [2] greater than 30 µM and an AC50 [3] greater than 30 µM. The AC50 [4] was 2.7 µM, the AC50 [5] was 9.13 µM and the AC50 [6] was 6.98 µM. It also gave an AC50 [7] of 10.6 µM, an AC50 [8] of 1.29 µM and an AC50 [9] greater than 30 µM. For the same compound, the AC50 [10] was 11.2 µM, the AC50 [11] was 0.785 µM and the AC50 [12] was 9.91 µM. The AC50 [13] was 4.3 µM.
Work on `Nc1nc2c(ncn2CCC(CO)CO)c(=O)[nH]1` [PENCICLOVIR] yielded an AC50 [1] greater than 30 µM, an AC50 [2] greater than 30 µM and an AC50 [3] greater than 30 µM. The AC50 [4] was greater than 30 µM, the AC50 [5] was greater than 30 µM and the AC50 [6] was greater than 30 µM. For the same compound, the AC50 [7] was greater than 30 µM, the AC50 [8] was greater than 30 µM and the AC50 [9] was greater than 30 µM. For the same compound, the AC50 [10] was greater than 30 µM, the AC50 [11] was greater than 30 µM and the AC50 [12] was greater than 30 µM. For the same compound, the AC50 [13] was greater than 30 µM.
For `Nc1ccc(/N=N/c2ccccc2)c(N)n1` [PHENAZOPYRIDINE], the AC50 [1] was greater than 30 µM, the AC50 [2] was greater than 30 µM and the AC50 [3] was 20.9 µM. The AC50 [4] was 14 µM, the AC50 [5] was greater than 30 µM and the AC50 [6] was 9.35 µM. It also gave an AC50 [7] greater than 30 µM, an AC50 [8] greater than 30 µM and an AC50 [9] greater than 30 µM. The AC50 [10] was greater than 30 µM, the AC50 [11] was greater than 30 µM and the AC50 [12] was greater than 30 µM. It also gave an AC50 [13] of 24.9 µM.
Compound `O=C(O)CCn1c2c(c3ccccc31)C[C@H](NS(=O)(=O)c1ccc(F)cc1)CC2` [RAMATROBAN] has an AC50 [1] greater than 30 µM, an AC50 [2] greater than 30 µM and an AC50 [3] greater than 30 µM. It also gave an AC50 [4] greater than 30 µM, an AC50 [5] greater than 30 µM and an AC50 [6] greater than 30 µM. The AC50 [7] was greater than 30 µM, the AC50 [8] was greater than 10 µM and the AC50 [9] was greater than 30 µM. It also gave an AC50 [10] greater than 30 µM, an AC50 [11] greater than 30 µM and an AC50 [12] greater than 30 µM. The AC50 [13] was greater than 30 µM.
With `CCO[C@@H](Cc1ccc(OCCn2c(C)ccc2-c2ccc(SC)cc2)cc1)C(=O)O` [SAROGLITAZAR] the AC50 [1] was greater than 30 µM, the AC50 [2] was greater than 30 µM and the AC50 [3] was greater than 30 µM. The AC50 [4] was greater than 30 µM, the AC50 [5] was greater than 30 µM and the AC50 [6] was greater than 30 µM. The AC50 [7] was greater than 30 µM, the AC50 [8] was greater than 30 µM and the AC50 [9] was greater than 30 µM. The AC50 [10] was greater than 30 µM, the AC50 [11] was greater than 30 µM and the AC50 [12] was greater than 30 µM. The AC50 [13] was greater than 30 µM.
Compound `CN1CCC2=C(C1)c1ccccc1Cc1ccccc12` [SETIPTILINE] has an AC50 [1] greater than 30 µM, an AC50 [2] greater than 30 µM and an AC50 [3] greater than 30 µM. For the same compound, the AC50 [4] was 13 µM, the AC50 [5] was 0.855 µM and the AC50 [6] was 0.0882 µM. The AC50 [7] was 0.0996 µM, the AC50 [8] was greater than 30 µM and the AC50 [9] was greater than 30 µM. It also gave an AC50 [10] of 12.8 µM, an AC50 [11] greater than 30 µM and an AC50 [12] of 0.154 µM. The AC50 [13] was greater than 30 µM.
Work on `COc1ccc(CCC(C)NCC(O)c2ccc(O)c([S+](C)[O-])c2)cc1` (stereo not drawn) [SULFINALOL] yielded an AC50 [1] greater than 30 µM, an AC50 [2] greater than 30 µM and an AC50 [3] greater than 30 µM. The AC50 [4] was greater than 30 µM, the AC50 [5] was greater than 30 µM and the AC50 [6] was greater than 30 µM. The AC50 [7] was greater than 30 µM, the AC50 [8] was greater than 30 µM and the AC50 [9] was greater than 30 µM. It also gave an AC50 [10] greater than 30 µM, an AC50 [11] greater than 30 µM and an AC50 [12] of 0.326 µM. It also gave an AC50 [13] greater than 30 µM.
`CCC1C(C)=NN=C(c2ccc(OC)c(OC)c2)c2cc(OC)c(OC)cc21` (stereo not drawn) [TOFISOPAM] showed an AC50 [1] greater than 30 µM, an AC50 [2] greater than 30 µM and an AC50 [3] of 6.62 µM. The AC50 [4] was greater than 30 µM, the AC50 [5] was greater than 30 µM and the AC50 [6] was greater than 30 µM. For the same compound, the AC50 [7] was greater than 30 µM, the AC50 [8] was greater than 30 µM and the AC50 [9] was greater than 30 µM. For the same compound, the AC50 [10] was greater than 30 µM, the AC50 [11] was greater than 30 µM and the AC50 [12] was greater than 30 µM. For the same compound, the AC50 [13] was greater than 30 µM.
`COc1cc(NCc2ccc3nc(N)nc(N)c3c2C)cc(OC)c1OC` [TRIMETREXATE] gave an AC50 [1] of 3.8 µM, an AC50 [2] greater than 30 µM and an AC50 [3] of 11.9 µM. It also gave an AC50 [4] of 2.16 µM, an AC50 [5] of 3.6 µM and an AC50 [6] of 1.94 µM. It also gave an AC50 [7] greater than 30 µM, an AC50 [8] of 23 µM and an AC50 [9] greater than 30 µM. For the same compound, the AC50 [10] was 1.2 µM, the AC50 [11] was greater than 30 µM and the AC50 [12] was 8.06 µM. The AC50 [13] was 2.4 µM.
